# In patent US5314999A, “Derivatives of basic polyene macrolides and their preparation” (Laboratoires Mayoly-Spindler, priority 1989, dated 1994):
# Where a name gives a salt, the structure may show the parent alone. Read-outs that look alike come from different tables or passages of the source.
# Experiments:
# Candida albicans = assay: Growth inhibition in liquid medium (Sabouraud broth); format: cell-based; settings: read-out: IC 50 (growth-inhibiting concentration of 50%)
# Description: (§1) A.1 : Study of the antibiotic efficiency of AmB derivatives in liquid medium against different yeasts
# (§2) The antibiotic efficiency was tested by the growth inhibition method in liquid medium (Sabouraud broth) in the presence of different concentrations of the derivatives studied.
# (§3) A yeast suspension was cultivated in a broth in such a manner that about 1×10^2 cell/ml were obtained.
# (§4) The tubes containing the different concentrations of antifungal substance were inoculated with the same amount of yeast cells, and were then incubated at 28° C. for 18 hours with stirring. For each concentration of antifungal substance, two identical tubes were prepared.
# (§5) The inhibition of fungal growth corresponding to the different concentrations was evaluated for each molecule by spectrophotometry at 620 nm and expressed in percent with respect to a reference solution without antifungal substance.
# Cryptoccocus neoformans = assay: as above; format: cell-based; settings: read-out: IC 50 (growth-inhibiting concentration of 50%)
# Description: as §1, §2, §3, §4, §5
# Pytirosporum orbiculare = assay: as above; format: cell-based; settings: read-out: IC 50 (growth-inhibiting concentration of 50%)
# Description: as §1, §2, §3, §4, §5
# Saccharomyces cerevisiae = assay: as above; format: cell-based; settings: Saccharomyces cerevisiae, 18 h, read-out: IC 50 (growth-inhibiting concentration of 50%)
# Description: as §1, §2, §3, §4, §5
# Aspergillus flavus = assay: Diffusion method in agar-agar medium (Sabouraud agar-agar); format: cell-based; settings: Aspergillus flavus, read-out: concentration giving a growth inhibition of 1 cm around a disc in solid medium
# Description: (§6) A.2 : Study of the antibiotic efficiency of amphotericine B derivatives in agar-agar medium against Aspergillus
# (§7) The antibiotic activity was tested by the diffusion method in agar-agar medium (Sabouraud agar-agar).
# (§8) The efficiency of each molecule was determined by the size of the growth-inhibiting zone around a WHATMAN 3M paper disc impregnated with the antibiotic substance of a given concentration.
# (§9) A suspension of Aspergillus spores in a broth was prepared, 0.2 ml of this suspension was used to inoculate at its surface an agar-agar medium which was solidified in such a manner that a homogeneous growth layer was obtained. After spreading, the WHATMAN 3M paper discs (diameter: 1 cm) were placed on the surface of the agar-agar, and then impregnated with 0.1 ml of the antibiotic substance at different concentrations.
# Aspergillus fumigatus = assay: as above; format: cell-based
# Description: as §6, §7, §8, §9
# red corpuscles = assay: Toxicity on red corpuscles (lysis), mice; format: cell-based; settings: 37° C., 1 hour 30, 90 min, 90 min, read-out: LD 50 (dose which leads to lysis in 50% of the erythrocytes)
# Description: (§10) B.1: Study of the toxicity on red corpuscles
# (§11) All the solutions of the AmB derivatives according to the invention were prepared immediately before use by diluting 4 mg of substance in 100 μl of 5% glucose solution, and then, after 15 minutes protected from light, 100 μl of sterile distilled water are added, and the mixture is made up to stock solutions of 4 mg/ml with a 5% glucose solution. For comparative study of the effects of AmB, 4 mg of FUNGIZONE are diluted with 1 ml of 5% glucose.
# (§12) The cells are prepared by placing 1 ml of a peripheral blood sample into a tube together with Ficollhypaque to remove the lymphocytes, and then centrifuging the mixture at 2000 rpm for 20 minutes. The remaining red corpuscles are recovered, washed once with 0.9% NaCl and then twice with 150 Mm KCl, 0.5 Mm tris-HCl, pH 7.4.
# (§13) A 1.25% suspension is then prepared with 150 mM KCl solution, 0.5 mM tris-HCl, pH 7.4, and 150 μl thereof are distributed in wells along with 50 μl of each of the dilutions of the derivatives, plus a control well (5% glucose solution).
# (§14) The cells are then incubated at 37° C. in a steam cabinet for 1 hour 30.
# (§15) To evaluate the cell lysis, haemoglobin is essayed by removing 100 μl of the supernatant in each well and diluting the sample with 1 ml of distilled water.
# (§16) The haemoglobin concentration is calculated by measuring the optical density at 540 nm and taking into account the absorption of the derivatives of amphotericine B.
# (§17) LD 50 is the dose which leads to lysis in 50% of the erythrocytes (a control of 100% lysis is obtained with distilled water, and reference lysis of 0% is obtained with the 5% glucose solution).
# [1] = Toxicity on nucleated cells, mice T lymph gland cells; format: cell-based; settings: mouse, 1 hour 30, trypan blue, read-out: LD 50 (concentration leading to a mortality of 50%)
# Description: (§18) B.2: Study of the toxicity on nucleated cells
# (§19) The solutions of the amphotericine B derivatives are prepared similarly to those mentioned in paragraph B.1.
# (§20) The cells are prepared by placing 20 ml of blood diluted to 1/2 with 0.9% NaCl into a tube together with 10 ml of Ficoll-hypaque, and the mixture is centrifuged at 2000 rpm for 30 minutes. The cell nuclei are recovered and washed twice with PBS buffer containing 5% of foetal calf serum.
# (§21) The cells are prepared by suspending 1.14×10^6 cells/ml in RPMI 1640 containing 2.5% of foetal calf serum and by filling each well with 150 μl. 50 μl of each dilution of the derivatives are added and also one control (5% glucose solution).
# (§22) The cells are then incubated in a steam cabinet at a CO2 concentration of 5% for 1 hour 30 at 37° C. or at ambient temperature.
# (§23) To evaluate the toxicity of the derivatives, a cell count in the presence of trypan blue is made, and the LD 50 (concentration of the derivative leading to a mortality of 50%) is calculated with respect to the control (5% glucose solution) for each concentration of each derivative.
# [2] = Toxicity on nucleated cells, mice B lymph gland cells; format: cell-based; settings: mouse, 1 hour 30, trypan blue, read-out: LD 50 (concentration leading to a mortality of 50%)
# Description: as §18, §19, §20, §21, §22, §23
# [3] = Toxicity on nucleated cells, mice thymocytes; format: cell-based; settings: mouse, thymocytes, 1 hour 30, trypan blue, read-out: LD 50 (concentration leading to a mortality of 50%)
# X 63 (mice lymphoma B) = assay: Toxicity on nucleated cells, X 63 mice lymphoma B; format: cell-based; settings: 1 hour 30, trypan blue, 90 min, read-out: LD 50 (concentration leading to a mortality of 50%)
# PBL = assay: Toxicity on nucleated cells, human PBL; format: cell-based; settings: human PBL, 1 hour 30, trypan blue; 90 min; read-out: LD 50 (concentration leading to a mortality of 50%)
# Description: as §18, §19, §20, §21, §22, §23
# [4] = Toxicity on red corpuscles (lysis), human; format: cell-based; settings: human, red corpuscles, 37° C., 1 hour 30, read-out: LD 50 (dose which leads to lysis in 50% of the erythrocytes)
# Description: as §10, §11, §12, §13, §14, §15, §16, §17
# [5] = Toxicity on nucleated cells, human bone marrow; format: cell-based; settings: 1 hour 30, trypan blue, read-out: LD 50 (concentration leading to a mortality of 50%)
# Description: as §18, §19, §20, §21, §22, §23
# [6] = Toxicity on nucleated cells, human thymocytes; format: cell-based; settings: 1 hour 30, trypan blue, read-out: LD 50 (concentration leading to a mortality of 50%)
# Description: as §18, §19, §20, §21, §22, §23
# [7] = Toxicity on nucleated cells, DAUDI human lymphoma B; format: cell-based; settings: human, daudi lymphoma b cells, 1 hour 30, trypan blue, read-out: LD 50 (concentration leading to a mortality of 50%)
# Candida albicans B 2630 = assay: Growth inhibition in liquid medium (Sabouraud broth); format: cell-based; settings: B2630, 18 h, read-out: IC 50 (growth-inhibiting concentration of 50%)
# Description: as §1, §2, §3, §4, §5
# [8] = Solubility of the AmB derivatives; format: physicochemical; settings: 5% glucose solution, ambient temperature
# Description: C.2. Solubility of the AmB derivatives according to the present invention
# AmB or the derivatives obtained are dissolved at ambient temperature in a 5% glucose solution up to saturation.
# [9] = background; cited from earlier work
# [10] = Toxicity on nucleated cells, human PBL; format: cell-based; settings: human, pbl, human PBLs; AmB 12 derivative, comparison of different catalysts (Table 4); read-out: LD 50
# Description: as §18, §19, §20, §21, §22, §23
# [11] = Sabouraud broth, 28° C., 18 hours
# [12] = Sabouraud agar-agar, disc diameter 1 cm, 0.1 ml
smiles,measurement,setting,value
"CC1OC[C@@H](O)[C@H]([C@H](O)C(=O)CN[C@@H]2[C@H](O)[C@H](O[C@H]3/C=C/C=C/C=C/C=C/C=C/C=C/C=C/[C@H](C)[C@@H](O)[C@@H](C)[C@H](C)OC(=O)C[C@H](O)C[C@H](O)CC[C@@H](O)[C@H](O)C[C@H](O)C[C@]4(O)C[C@H](O)[C@@H](C(=O)O)[C@H](C3)O4)O[C@H](C)[C@H]2O)O1 (stereo partly drawn) [AmB 22 F, 1-deoxy-1-amino-4,6-O-ethylidene-D-fructosyl-AmB]",IC50,Candida albicans; [11],560 nM
same,IC50,Cryptoccocus neoformans; [11],250 nM
same,IC50,Pytirosporum orbiculare; [11],180 nM
same,IC50,Saccharomyces cerevisiae; [11],1600 nM
same,IC (1 cm inhibition zone),Aspergillus flavus; [12],150 µM
same,concentration giving a growth inhibition of 1 cm around a disc in solid medium,Aspergillus fumigatus; [12],5 × 10^-4 molarity
same,HC50,red corpuscles,90 µM
same,CC50 at 1.5 h,[1],20 µM
same,CC50 at 1.5 h,[2],20 µM
same,CC50 at 1.5 h,[3],3.5 µM
same,CC50,X 63 (mice lymphoma B),> 1 mM
same,CC50,PBL,> 1 mM
same,HC50 at 1.5 h,[4],100 µM
same,CC50 at 1.5 h,[5],1 mM
same,CC50 at 1.5 h,[6],> 300 µM
same,CC50 at 1.5 h,[7],> 1 mM
"C[C@@H]1[C@H](O)[C@@H](C)/C=C/C=C/C=C/C=C/C=C/C=C/C=C/[C@H](O[C@@H]2O[C@H](C)[C@@H](O)[C@H](N)[C@@H]2O)C[C@@H]2O[C@](O)(C[C@@H](O)C[C@@H](O)[C@H](O)CC[C@@H](O)C[C@@H](O)CC(=O)O[C@H]1C)C[C@H](O)[C@H]2C(=O)O [AmB, amphotericine B, reference compound]",IC50,Candida albicans B 2630,350 nM
same,IC50,"Candida albicans; Candida albicans, 18 h",80 nM
same,IC50,Cryptoccocus neoformans; 18 h,80 nM
same,IC50,Pytirosporum orbiculare; 18 h,< 10 nM
same,IC50,Saccharomyces cerevisiae,540 nM
same,IC (1 cm inhibition zone),Aspergillus flavus,50 µM
same,IC (1 cm inhibition zone),"Aspergillus fumigatus; Aspergillus fumigatus, read-out: concentration giving a growth inhibition of 1 cm around a disc in solid medium",50 µM
same,solubility (in words),[8],insoluble
same,solubility in water (in words),[9],sparingly soluble in water
"C[C@@H]1[C@H](O)[C@@H](C)/C=C/C=C/C=C/C=C/C=C/C=C/C=C/[C@H](O[C@@H]2O[C@H](C)[C@@H](O)[C@H](NC3O[C@H](C(N)=O)[C@@H](O)[C@H](O)[C@H]3O)[C@@H]2O)C[C@@H]2O[C@](O)(C[C@@H](O)C[C@@H](O)[C@H](O)CC[C@@H](O)C[C@@H](O)CC(=O)O[C@H]1C)C[C@H](O)[C@H]2C(=O)O (some centres unmarked) [Uncatalyzed NMG salt, reference compound]",CC50 at 1.5 h,[10],80 µM
